In patent US10993987B2 (Sublimity Therapeutics Limited, priority 2014, dated 2021):

Key:
[1] = Example 11 emulsion stability: time point when crystallisation was observed (polarised light microscopy); type: physicochemical; details: for emulsion stability compared to sodium dodecyl sulfate (SDS): as aqueous phase surfactant of the cyclosporin emulsion
Description: Emulsions were prepared by mixing an oil phase and an aqueous phase, as described in Example 1. The oil phase was consistent for all emulsions of this example. The emulsion aqueous phase mixed was one of three aqueous mixtures. The three aqueous phases differed in the amount of surfactant, 0.7%, 1.3% and 2.5%, and water.
The emulsion was prepared by mixing the oil phase and aqueous phase in a oil:aqueous phase ratio of 1:5. The experiments were performed in triplicate, N=3. In order to replicate current manufacturing conditions as much as possible the following procedure was carried out: • Identical size beakers were used to ensure minimal variation between experiments • Identical submersible magnetic stirrers were placed in each beaker to keep the emulsions under constant magnetic stirring, and the same rpm stir rate used for each • Hot plates were used to maintain a constant emulsion temperature of 65° C. • Emulsions were kept covered with aluminium foil during the process
Sampling of the emulsion was carried out at various time points using disposable pipettes to avoid cross contamination.
(§1) Samples were withdrawn from each emulsion at half hour time intervals starting at time zero (t0) using a disposable pipette. Drops of emulsion were placed on a glass slide, pre heated on a hot plate. The sample was covered with a cover slip and a small amount of pressure applied to form a thin film of emulsion. The samples were allowed to solidify to room temperature before being viewed at ×50 and ×100 objective lens under polarised light to check for the presence of crystals. Results were recorded as optical photomicrographs with three images taken of each emulsion at each time point. Images documenting crystal growth and size with respect to time within the sample emulsion as well as background oil droplet size were collected.

[2] = Example 11 emulsion droplet size by photomicrographs; type: physicochemical
Source text: as §1
Photomicrographs of the emulsions enabled the investigation of the droplet size as well as crystal formation. Smaller, more uniform droplet size was preferred.

Compound	emulsion stability compared to sodium dodecyl sulfate (SDS) [1]	emulsion stability among tested surfactants ([1]; each concentration (0.7%, 1.3%, 2.5% in aqueous phase))	emulsion droplet characteristics (smaller, more uniform droplet size preferred) [2]
CCCCCCCCCCCCCCCCCCOS(=O)(=O)[O-].[Na+] [Sodium n-Octadecyl Sulfate]	comparable to that of sodium dodecyl sulfate	best stability for each concentration	preferred droplet characteristics were observed
CCCCCCCCOS(=O)(=O)[O-].[Na+] [Sodium n-Octyl Sulfate]	comparable to that of sodium dodecyl sulfate		preferred droplet characteristics were observed
